The values that follow come from patent publication US20120309706A1, “COMBINED TREATMENT OF PANCREATIC CANCER WITH GEMCITABINE AND MASITINIB” (AB SCIENCE, priority 2010, published 2012).

One data set has as its system Capan-2. The data set is described as follows: WST-1 proliferation/survival assay, Capan-2. It is filed as cell-based, human. The conditions noted are these: Capan-2, single agent, 1% FCS. The procedure: (§1) Sensitivity of pancreatic tumour cell lines to masitinib or gemcitabine as single agents, or in combination, was assessed using WST-1 proliferation assays. Four cell lines were tested for their sensitivity to masitinib (A) or gemcitabine (B). […] (D) Sensitivity of resistant Mia Paca-2 cells to various tyrosine kinase inhibitors alone (top) or in combination with gemcitabine (bottom) was analyzed in WST-1 proliferation assays.
(§2) Pancreatic cancer cells lines (Mia Paca-2, Panc-1, BxPC-3 and Capan-2) were obtained from Dr. Juan Iovanna (Inserm, France). Cells were maintained in RPMI (BxPC-3, Capan-2) or DMEM (Mia Paca-2, Panc-1) medium containing glutamax-1 (Lonza), supplemented with 100 U/ml penicillin/100 μg/ml streptomycin, and 10% foetal calf serum (FCS) (AbCys, Lot S02823S1800). Expression of tyrosine kinases was determined by RT-PCR using Hot Star Taq (Qiagen GmbH, Hilden, Germany) in a 2720 Thermal Cycler (Applied Biosystems).
(§3) Cytotoxicity of masitinib and gemcitabine was assessed using a WST-1 proliferation/survival assay (Roche diagnostic) in growth medium containing 1% FCS. Treatment was started with the addition of the respective drug. […] After 72 hours WST-1 reagent was added and incubated with the cells for 4 hours before absorbance measurement at 450 nm in an EL800 Universal Microplate Reader (Bio-Tek Instruments Inc.). Media alone was used as a blank and proliferation in the absence of compounds served as positive control. Results are representative of three/four experiments. The masitinib sensitisation index is the ratio of the IC50 of gemcitabine against the IC50 of the drug combination.

A further data set has as its system pancreatic cancer. The following applies: cited from earlier work.
The test system of a further data set is BxPC-3. The data set is described as follows: WST-1 proliferation/survival assay, BxPC-3. The following applies: BxPC-3, single agent, 1% FCS. The data set is classed as cell-based, human. The procedure: as §1, §2
Cytotoxicity of masitinib and gemcitabine was assessed using a WST-1 proliferation/survival assay (Roche diagnostic) in growth medium containing 1% FCS. Treatment was started with the addition of the respective drug. […] After 72 hours WST-1 reagent was added and incubated with the cells for 4 hours before absorbance measurement at 450 nm in an EL800 Universal Microplate Reader (Bio-Tek Instruments Inc.). […]
(In general: Tetrazolium assays rely on reduction of a dye to a coloured formazan, in cell work by metabolically active cells.)

A further data set deals with Panc-1. In words: WST-1 proliferation/survival assay, Panc-1. It is filed as cell-based. The conditions noted are these: Homo sapiens. The protocol: as §1, §2, §3
In a further data set the test system is Mia Paca-2. In words: WST-1 proliferation/survival assay, Mia Paca-2. It is filed as cell-based, human. The conditions noted are these: for IC50: Homo sapiens; for response of Mia Paca-2 cells to gemcitabine after pre-incubation with TKI: 10 μM imatinib or dasatinib, compared to masitinib. The procedure: as §1, §2, §3
Comparison of masitinib to other TKIs for their potential to sensitize gemcitabine-resistant pancreatic cancer cells: Similar TKI plus gemcitabine combination experiments to those described above were performed with gemcitabine-resistant Mia Paca-2 cells to compare masitinib with imatinib (Gleevec™, STI-571; Novartis, Basel, Switzerland), a TKI targeting ABL, PDGFR, and c-Kit); and dasatinib (Sprycel, Bristol-Myers Squibb), a TKI targeting SRC, ABL, PDGFR, and c-Kit.

Data set [1] relates to Mia Paca-2 cells. The data set is described as follows: Gene expression profiling (Affymetrix U133 Plus 2.0 microarrays) and pathway analysis. It is filed as cell-based, human. The conditions noted are these: for down-regulated genes / up-regulated genes: fold-change threshold of 2; for deregulated genes: fold-change threshold of 2, treated/untreated; for deregulated genes specific to the treatment: pathway analysis, Ingenuity. The protocol: Gene expression profiling of cell lines (from 2 μg RNA) was assessed using whole-genome Affymetrix U133 Plus 2.0 human oligonucleotide microarrays. Generation of expression matrices, data annotation, filtering and processing have been previously described [Giroux V et al., 2006 Clin Cancer Res 12: 235-241]. Microarray statistics and cluster analysis were performed by the Robust Multichip Average method in R using Bioconductor and using the Cluster and TreeView programs. Drug response signatures were generated by differential analysis, which compared the expression profile of each treated cell line with that of the untreated cell line by measuring the fold-change (treated/untreated) of each probe set. The lists of differential genes were interrogated using the Ingenuity Pathway Analysis software (Version 5.5.1-1002; Ingenuity Systems, Redwood City, Calif.) with a significance threshold for the corrected p-value<0.05. MIAME compliant array data can be accessed at (www.ebi.ac.uk/arrayexpress) using the accession number GSE17987.
Whole-genome clustering of the four cell samples sorted them into two opposite clusters (data not shown). The two treatment conditions with gemcitabine clustered together (left cluster), whereas cells treated with masitinib alone clustered with the untreated cells (right cluster). […] This was confirmed by the differential analysis of expression profile. […] These drug response expression signatures were characterised via pathway analysis using Ingenuity software. […] This pathway is involved in pancreatic development and re-activation of this signalling system has been implicated in pancreatic carcinoma with reported nuclear localisation of the downstream effector β-catenin. […] Three other pathways altered to a lesser extent included: ERK/MAPK Signalling, CDK5 Signalling, and PI3K/AKT Signalling (p=0.016, 0.025, 0.039, respectively).

Data set [2] concerns Mia Paca-2 pancreatic tumours. The data set is described as follows: Nog-SCID mouse model of human pancreatic cancer. The data set is classed as in vivo, Nog-SCID mice. The following applies: for Tumour volume, Median: following 28 days of treatment (day 56). The protocol:
Mia Paca-2 tumour cells (10^7) were injected into the flank of Nog-SCID mice. Treatment was initiated 28 days after tumour cell injection. The different groups were treated with either: twice weekly injections of gemcitabine (i.p. 50 mg/kg), daily oral masitinib (100 mg/kg), water (control), or combined daily oral masitinib (100 mg/kg) and twice weekly injections of gemcitabine. Mice were treated for 56 days.
Male Nog-Scid mice (7 weeks old) were obtained from internal breeding and were housed under specific pathogen-free conditions at 20±1° C. in a 12-hour light/12-hour dark cycle and ad libitum access to food and filtered water. Mia Paca-2 cells were cultured as described above. At day 0 (D0), mice were injected with 107 Mia Paca-2 cells in 200 μl PBS into the right flank. Tumours were allowed to grow for 1.5 to 4 weeks until the desired tumour size was reached (˜200 mm3). At day 28, animals were allocated into four treatment groups (n=7 to 8 per group), ensuring that each group's mean body weight and tumour volume were well matched, and treatment was initiated for a duration of 4 to 5 weeks. Treatments consisted of either: a) daily sterile water for the control group, b) an intraperitoneal (i.p.) injection of 50 mg/kg gemcitabine twice a week, c) daily gavage with 100 mg/kg masitinib, or d) combined i.p injection of 50 mg/kg gemcitabine twice a week and daily gavage with 100 mg/kg masitinib. Tumour size was measured with callipers and tumour volume was estimated using the formula: volume=(length×width2)/2. The tumour growth inhibition ratio was calculated as (100)×(median tumour volume of treated group)/(median tumour volume of control group).
Relative changes in tumour volumes were compared between treatment groups using a variance analysis (ANOVA). Normality of relative changes in tumour volumes between day 28 and day 56 was first tested using the Shapiro-Wilk test of normality. […]
The tumour size was monitored every 7 days until day 56, after which time the animals were sacrificed.

Data set [3] deals with Mia Paca-2 cells. The data set is described as follows: In vitro tyrosine phosphorylation assay (western blot, anti-pTyr). The conditions noted are these: 6 hours, at 1 μM and beyond. The data set is classed as cell-based, human. The procedure:
(A) Messenger RNA expression of various receptor and cytoplasmic tyrosine kinases was analyzed by RT-PCR. Universal human reference total RNA was used as positive control for primers and the ubiquitous β-glucoronidase (GUS) served as an internal control for all RT-PCR reactions. (B) Tyrosine phosphorylation of proteins in response to masitinib. Mia Paca-2 cells (5×10^6) were treated for 6 hours at 37° C. with various concentrations of masitinib. Total cell lysates were prepared and tyrosine phosphorylation was analyzed by western blot with antibodies against phosphotyrosine (anti-pTyr). […] MW=molecular weight. […] Proteins (20 μg) were resolved by SDS-PAGE 10%, followed by western blotting and immunostaining. The following primary antibodies were used: rabbit anti-phospho-GRB2 antibody (sc-255 1:1000, Santa Cruz, Calif.), and anti-phosphotyrosine antibody (4G10 1:1000, Cell Signalling Technology, Ozyme, France). […] Immunoreactive bands were detected using enhanced chemiluminescent reagents (Pierce, USA). To estimate the range of masitinib concentration necessary to sensitize pancreatic tumor cell lines to chemotherapy, we assessed the ability of masitinib to block protein tyrosine phosphorylation by western blot analysis in cell lysates. […]
For orientation: In western blotting, separated proteins are transferred to a membrane and probed.

Data set [4] is described as follows: Masitinib clearance half-life. The conditions noted are these: human, in vivo. From the text:
At the cut-off date for safety (17 Oct. 2008), all 22 patients enrolled had experienced at least one dose of masitinib. […] One patient reported a masitinib-related grade 4 neutropenia. The most common masitinib-related, haematological grade 3 AEs were anaemia (22.7%), lymphopenia (22.7%), neutropenia (18.2%) and leucopoenia (18.2%). The most common, masitinib-related, non-haematological grade 3 AE was asthenia (13.6% of patients). […] One patient's death was reported to be due to several AEs (two syncopes, severe abdominal pain, hypotension, grade 2 anemia, acute renal failure and respiratory distress syndrome) and was suspected to be related to masitinib at the time of occurrence. However, masitinib had been interrupted for 6 days before these fatal AEs occurred. […] Thus, the death of this patient is most unlikely related to masitinib. Four other deaths occurred during this study but none were suspected to be treatment related.

In another data set the target is FAK (Homo sapiens, UniProt Q05397). The data set is described as follows: FAK activity, preliminary in vitro data. The data set is classed as biochemical. From the text:
Altogether, this could provide a mechanism of action for masitinib on pancreatic cancer through the reduction of tumour progression or the inhibition of mast cell migration and activation, or both.

The mark [5] stands for this setting: Panc-1, single agent, 72 hours, 1% FCS, read-out: IC50.
[6] abbreviates: Mia Paca-2, single agent, 72 hours, 1% FCS, read-out: IC50.

Like-named read-outs stand apart in the source and are kept apart here. Marks after values point to notes of the source that are not given here.

Chain of FAK (Q05397 whole entry): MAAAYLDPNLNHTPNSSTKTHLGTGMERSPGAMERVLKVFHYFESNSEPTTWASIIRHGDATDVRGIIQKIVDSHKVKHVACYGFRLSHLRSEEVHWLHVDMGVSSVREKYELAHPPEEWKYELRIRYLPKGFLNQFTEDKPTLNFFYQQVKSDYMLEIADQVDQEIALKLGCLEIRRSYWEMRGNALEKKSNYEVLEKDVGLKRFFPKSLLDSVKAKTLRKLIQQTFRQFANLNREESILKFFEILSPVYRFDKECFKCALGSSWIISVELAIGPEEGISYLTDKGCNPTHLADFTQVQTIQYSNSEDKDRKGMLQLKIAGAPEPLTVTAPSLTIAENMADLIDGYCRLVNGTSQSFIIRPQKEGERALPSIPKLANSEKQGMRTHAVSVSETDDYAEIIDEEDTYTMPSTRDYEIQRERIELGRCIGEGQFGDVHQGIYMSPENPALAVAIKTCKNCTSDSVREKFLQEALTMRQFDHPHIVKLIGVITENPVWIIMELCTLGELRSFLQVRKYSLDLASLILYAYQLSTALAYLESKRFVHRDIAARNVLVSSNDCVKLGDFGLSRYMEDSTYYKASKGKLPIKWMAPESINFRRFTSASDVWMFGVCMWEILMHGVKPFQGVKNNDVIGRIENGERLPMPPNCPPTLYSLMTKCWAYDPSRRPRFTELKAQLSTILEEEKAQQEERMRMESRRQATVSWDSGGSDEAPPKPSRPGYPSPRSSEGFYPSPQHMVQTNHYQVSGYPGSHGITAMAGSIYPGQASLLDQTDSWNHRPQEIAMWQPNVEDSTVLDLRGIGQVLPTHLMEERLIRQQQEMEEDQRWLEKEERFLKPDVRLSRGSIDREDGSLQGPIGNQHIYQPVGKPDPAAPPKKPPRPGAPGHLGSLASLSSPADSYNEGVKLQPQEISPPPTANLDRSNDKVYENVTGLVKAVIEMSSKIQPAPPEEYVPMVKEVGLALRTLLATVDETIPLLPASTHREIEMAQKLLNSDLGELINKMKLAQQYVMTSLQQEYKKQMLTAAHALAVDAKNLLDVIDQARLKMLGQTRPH

In general, IC50 refers to the concentration that gives 50% inhibition. `Nc1ccn(C2OC(CO)C(O)C2(F)F)c(=O)n1` (centres unmarked) [Gemcitabine, 4-amino-1-[3,3-difluoro-4-hydroxy-5-(hydroxymethyl)tetrahydrofuran-2-yl]-1H-pyrimidin-2-one]: the 50% inhibitory concentration (IC50) in the data set with Capan-2 (72 hours) was 2 µM; in the data set with Capan-2 (Homo sapiens, Capan-2, 72 h), 2 to 20 µM; with BxPC-3 (72 hours), 2 to 20 µM; in the data set with Panc-1 (Panc-1, gemcitabine monotherapy, read-out: IC50 (resistance)), greater than 2500 µM; in the data set with Panc-1 (setting [5]) it was greater than 10 µM; in the data set with Mia Paca-2 (Mia Paca-2, gemcitabine monotherapy, read-out: IC50 (resistance)), greater than 2500 µM. In addition, the half-maximal inhibitory concentration (IC50) with Mia Paca-2 (setting [6]) was greater than 10 µM. Also, in the data set with pancreatic cancer (Burris et al. 1997, advanced pancreatic population (locally advanced and metastatic)), the “medium TTP” value is 2.33 months. In addition, the TTP threshold in the data set with pancreatic cancer (Storniolo et al. 1999, solely locally advanced patients) is reported as 4.1 months. In addition, the 1-year survival rate in the data set with pancreatic cancer (clinical trial of erlotinib plus gemcitabine versus gemcitabine monotherapy, p=0.023) is given as 17%; in the data set on pancreatic cancer (standard gemcitabine therapy) it was 21%. Moreover, the “median OS” value in the data set with pancreatic cancer (clinical trial of erlotinib plus gemcitabine versus gemcitabine monotherapy) was 5.91 months. For the same compound, in the data set on pancreatic cancer (comparison), the “12-month survival rates, published” value was 21%. Besides, the “median OS, published” value with pancreatic cancer (comparison) is given as 6 months. Also, the “median overall survival (OS)” value with pancreatic cancer (standard gemcitabine therapy, locally advanced, unresectable, or metastatic pancreatic adenocarcinoma) is on record as 6 months. The down-regulated genes in the data set with Mia Paca-2 cells [1] amounted to 113 genes. The up-regulated genes with Mia Paca-2 cells [1] stood at 1048 genes. Besides, the deregulated genes in the data set with Mia Paca-2 cells [1] was determined as 1161 genes. The “deregulated genes specific to the treatment” value in the data set on Mia Paca-2 cells [1] is 818 genes. For the same compound, in data set [2] (FIG. 3), the “tumour growth between day 35 and 49” value is “stabilization of tumour growth”. For the same compound, the “Tumour volume, Median” value in data set [2] is 662* mm^3.

For orientation: half-life means the time needed for the level to fall by half in the phase considered. Read a high half-life as slow decline. As to `Cc1ccc(NC(=O)c2ccc(CN3CCN(C)CC3)cc2)cc1Nc1nc(-c2cccnc2)cs1` [Masitinib, 4-(4-methylpiperazin-1-ylmethyl)-N-[4-methyl-3-(4-pyridin-3ylthiazol-2-ylamino)phenyl]benzamide], in the data set on Capan-2 (Homo sapiens, Capan-2, 72 h), the IC50 was in the range of 5 to 10 µM. The “protein tyrosine phosphorylation (western blot)” value with Mia Paca-2 cells [3] is given as “clearly inhibited tyrosine phosphorylation”. The half-life in data set [4] was 17 h. The half-maximal inhibitory concentration (IC50) with BxPC-3 (Homo sapiens, BXPC-3, 72 h) was 5 to 10 µM. Further, the half-maximal inhibitory concentration (IC50) in the data set on Panc-1 (setting [5]) lay within 5 to 10 µM. For the same compound, the “response of Mia Paca-2 cells to gemcitabine after pre-incubation with TKI” value with Mia Paca-2 is recorded as “able to restore sensitivity to gemcitabine”. Also, the IC50 in the data set with Mia Paca-2 (setting [6]) lay within 5 to 10 µM. In the data set with Mia Paca-2 cells [1], the down-regulated genes is 29 genes, the up-regulated genes is 325 genes, the deregulated genes was 354 genes and the “deregulated genes specific to the treatment” value came to 201 genes. For the same compound, the “Tumour volume, Median” value in [2] is listed as 865 mm^3. The FAK auto-activation result on FAK was “partially inhibits FAK auto-activation”. Also, the “reduces FAK activity” value on FAK (masitinib 1 μM) worked out at 21%.

Turning to `Cc1nc(Nc2ncc(C(=O)Nc3c(C)cccc3Cl)s2)cc(N2CCN(CCO)CC2)n1` [dasatinib], the cells remaining resistant in the data set with Mia Paca-2 (Mia Paca-2, dasatinib alone >0.1 μM) was less than 50%.

On to `Cc1ccc(NC(=O)c2ccc(CN3CCN(C)CC3)cc2)cc1Nc1nccc(-c2cccnc2)n1` [imatinib], for which the “response of Mia Paca-2 cells to gemcitabine after pre-incubation with TKI” value in the data set with Mia Paca-2 is on record as “did not result in an increased response”. Besides, the “Mia Paca-2 cell proliferation, TKI alone” value in the data set with Mia Paca-2 (imatinib alone 10 μM) is given as “not inhibited”.
